Tested on: MYB mRNA
Assay: Splicing RT-qPCR assay, MYB canonical (CJ) and alternative (AJ) junction mRNA
Type: cell-based
Details: Homo sapiens, A673 or K562 cells, 24 hours; for IC50: decrease in canonical junction mRNA; for AC50: increase in alternative junction mRNA
In short: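 A673 (DMEM/10% FBS, plated 24 h before dosing) or K562 (IMDM/10% FBS) cells treated 24 h at 37 °C with 11-point 3-fold dilutions, top final 10 uM, DMSO ≤0.25%. Lysates analysed by one-step RT-qPCR for CJ and AJ isoforms, normalized to GAPDH/GUSB (K562) or PPIA (A673).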

Structure (SMILES) | IC50 | AC50
COc1ncc2c(N3C[C@@H](C)N[C@@H](C)C3)ccc(C(=O)Nc3cc(F)c4nc(C)cn4c3)c2n1 [Compound 300] | < 100 nM | < 100 nM
Cc1c(O)c(NC(=O)c2ccc(N3C[C@@H](C)N[C@@H](C)C3)c3nccnc23)cc2cn(C)nc12 [Compound 310] | 100 to 1000 nM | 100 to 1000 nM
Cc1cn2cc(NC(=O)c3ccc(C4=CCNCC4)c4nccnc34)cc(F)c2n1 [Compound 240, N-{8-fluoro-2-methylimidazo[1,2-a]pyridin-6-yl}-8-(1,2,3,6-tetrahydropyridin-4-yl)quinoxaline-5-carboxamide] | < 100 nM | 100 to 1000 nM
Cc1nc2c(F)cc(NC(=O)c3ccc(N4CCNCC4)c4ccnnc34)cc2s1 [Compound 118] | 100 to 1000 nM | 100 to 1000 nM
C[C@@H]1CN(c2ccc(C(=O)Nc3cc(F)c4cnccc4c3)c3nccnc23)C[C@H](C)N1 [Compound 343] | 1000 to 10000 nM | 1000 to 10000 nM
Cn1cc2c(F)cc(NC(=O)c3ccc(N4CCNCC4)c4ccnnc34)cc2n1 [Compound 116] | > 10000 nM | > 10000 nM

Second part, led by results:

IC50 | Structure (SMILES) | AC50
< 100 nM | Cc1cn2cc(NC(=O)c3c(F)cc(N4C[C@@H](C)N[C@@H](C)C4)c4nccnc34)cc(F)c2n1 [Compound 261, cis-8-[(3R,5S)-3,5-dimethylpiperazin-1-yl]-6-fluoro-N-{8-fluoro-2-methylimidazo[1,2-a]pyridin-6-yl}quinoxaline-5-carboxamide] | < 100 nM
< 100 nM | Cc1cn2cc(NC(=O)c3ccc(N4C[C@@H](C)N[C@@H](C)C4)c4nccnc34)nc(C)c2n1 [Compound 288] | < 100 nM
100 to 1000 nM | Cc1cn2cc(NC(=O)c3ccc([C@@]45CCNCC4C5)c4nccnc34)cc(F)c2n1 (stereo in doubt) [Compound 248, 8-{3-azabicyclo[4.1.0]heptan-6-yl}-N-{8-fluoro-2-methylimidazo[1,2-a]pyridin-6-yl}quinoxaline-5-carboxamide 2,2,2-trifluoroacetate] | 100 to 1000 nM
100 to 1000 nM | Cc1cn2cc(NC(=O)c3ccc(N4CCN[C@H](CF)C4)c4nccnc34)cc(F)c2n1 [Compound 366] | 100 to 1000 nM
< 100 nM | Cc1cn2cc(NC(=O)c3ccc(N4C[C@@H](C)N[C@H](C)C4)c4nccnc34)cc(F)c2n1 [Compound 312] | < 100 nM
> 10000 nM | C[C@@H]1CN(c2ccc(C(=O)Nc3cc(F)c4nc(O)cn4c3)c3nccnc23)C[C@H](C)N1 [Compound 360] | > 10000 nM
1000 to 10000 nM | Cc1cn2cc(NC(=O)c3ccc(N4CCN5CCOC[C@H]5C4)c4nccnc34)cc(F)c2n1 [Compound 256, (R)—N-(8-fluoro-2-methylimidazo[1,2-a]pyridin-6-yl)-8-(hexahydropyrazino[2,1-c][1,4]oxazin-8(1H)-yl)quinoxaline-5-carboxamide] | 1000 to 10000 nM

— patent US20240409536A1, “COMPOUNDS AND METHODS FOR MODULATING SPLICING” (REMIX THERAPEUTICS INC., priority 2021, published 2024)
